Measurements published in patent US9278091B2, “Compounds for the treatment of Clostridium difficile associated disease” (Summit Therapeutics PLC, priority 2010, dated 2016).

Columns and labels:
Type in all cases: cell-based
[1] = test system: Clostridium difficile ATCC700057; assay: MIC by broth microdilution (CLSI) against Clostridium difficile; details: Clostridioides difficile, read-out: minimum inhibitory concentration (MIC) C. difficile
Experimental: (§1) The term “minimum inhibitory concentration” or “MIC” defines the lowest concentration of a test compound that is needed to inhibit growth of a bacterial isolate in vitro. A common method for determining the MIC of an antibiotic is to prepare several tubes containing serial dilutions of the test compound that are then inoculated with the bacterial isolate of interest.
(§2) MIC data were determined by broth microdilution according to CLSI protocols described in Methods for Antimicrobial Susceptibility Testing of Anaerobic Bacteria; Approved Standard-Seventh Edition [M11-A7, Vol. 27, No 2, January 2007] and Methods for Dilution Antimicrobial Susceptibility Tests for Bacteria That Grow Aerobically; Approved Standard—Seventh Edition [M7-A7, Vol. 26, No 2, January 2006].

[2] = test system: Bacteroides fragilis ATCC 25285; assay: MIC by broth microdilution (CLSI) against B. fragilis; details: ATCC25285, read-out: minimum inhibitory concentration (MIC) B. fragilis
Experimental: as §1, §2
(§3) The bacterial strains used were: • Bacteroides fragilis ATCC 25285 • Escherichia coli ATCC25922 • Lactobacillus paracasei Z1 83 • Bifidobacterium dentium NCTC 11816 • B. adolescentis MWR144 • Staphylococcus aureus ATCC29213 • Enterococcus faecalis ATCC29212

[3] = test system: Escherichia coli ATCC25922; assay: MIC by broth microdilution (CLSI) against E. coli; details: read-out: minimum inhibitory concentration (MIC) E. coli
Experimental: as §1, §2, §3

[4] = test system: Lactobacillus paracasei Z1 83; assay: MIC by broth microdilution (CLSI) against L. paracasei; details: Lacticaseibacillus paracasei, Z183, read-out: minimum inhibitory concentration (MIC) L. paracasei
Experimental: as §1, §2, §3

[5] = test system: Bifidobacterium dentium NCTC 11816; assay: MIC by broth microdilution (CLSI) against B. dentium; details: NCTC11816, read-out: minimum inhibitory concentration (MIC) B. dentium
Experimental: as §1, §2, §3

[6] = test system: B. adolescentis MWR144; assay: MIC by broth microdilution (CLSI) against B. adolescentis; details: Bifidobacterium adolescentis, read-out: minimum inhibitory concentration (MIC) B. adolescentis
Experimental: as §1, §2, §3

[7] = test system: Staphylococcus aureus ATCC29213; assay: MIC by broth microdilution (CLSI) against S. aureus; details: read-out: minimum inhibitory concentration (MIC) S. aureus
Experimental: as §1, §2, §3

[8] = test system: Enterococcus faecalis ATCC29212; assay: MIC by broth microdilution (CLSI) against E. faecalis; details: read-out: minimum inhibitory concentration (MIC) E. faecalis
Experimental: as §1, §2, §3

SMILES | MIC [1] [mg/L] | MIC [2] [mg/L] | MIC [3] [mg/L] | MIC [4] [mg/L] | MIC [5] [mg/L] | MIC [6] [mg/L] | MIC [7] [mg/L] | MIC [8] [mg/L]
c1cnc2sc(-c3nc4cc(-c5ccc6[nH]c(-c7ccncc7)nc6c5)ccc4[nH]3)cc2c1 [Example 1, 2-(2′-(pyridin-4-yl)-1H,1′H-5,5′-bibenzo[d]imidazol-2-yl)thieno[2,3-b]pyridine] | ≤ 1 | ≥ 64 | ≥ 64 | ≥ 64 | ≥ 64 | ≤ 32 | ≥ 64 | ≥ 64
c1ccc2sc(-c3nc4cc(-c5ccc6[nH]c(-c7ccncc7)nc6c5)ccc4[nH]3)cc2c1 [Example 2, 2-(benzo[b]thiophen-2-yl)-2′-(pyridin-4-yl)-1H,1′H-5,5′-bibenzo[d]imidazole] | ≤ 4 | ≥ 64 | ≥ 64 | ≥ 64 | ≥ 64 | ≥ 64 | ≥ 64 | ≥ 64
c1cc(-c2nc3cc(-c4ccc5[nH]c(-c6ccc7occc7c6)nc5c4)ccc3[nH]2)ccn1 [Example 3, 2-(benzofuran-5-yl)-2′-(pyridin-4-yl)-1H,1′H-5,5′-bibenzo[d]imidazole] | ≤ 1 | ≥ 64 | ≥ 64 | ≤ 32 | ≤ 32 | ≤ 4 | ≤ 1 | ≤ 1
c1cc(-c2nc3ccc(-c4ccc5[nH]c(-c6ccc7[nH]cnc7c6)nc5c4)cc3[nH]2)ccn1 [Example 4, 6-(2′-(pyridin-4-yl)-1H,3′H-5,5′-bibenzo[d]imidazol-2-yl)benzo[d]imidazole] | ≤ 1 | ≥ 64 | ≥ 64 | ≥ 64 | ≥ 64 | ≥ 64 | ≥ 64 | ≥ 64
c1cc(-c2nc3ccc(-c4ccc5[nH]c(-c6ccc7sccc7c6)nc5c4)cc3[nH]2)ccn1 [Example 5, 2-(benzo[b]thiophen-5-yl)-2′-(pyridin-4-yl)-1H,3′H-5,5′-bibenzo[d]imidazole] | ≤ 1 | ≥ 64 | ≥ 64 | ≥ 64 | ≥ 64 | ≤ 32 | ≥ 64 | ≤ 32
c1cc(-c2nc3ccc(-c4ccc5[nH]c(-c6ccc7[nH]ccc7c6)nc5c4)cc3[nH]2)ccn1 [Example 6, 2-(1H-indol-5-yl)-2′-(pyridin-4-yl)-1H,3′H-5,5′-bibenzo[d]imidazole] | ≤ 1 | ≥ 64 | ≥ 64 | ≥ 64 | ≥ 64 | ≤ 32 | ≤ 32 | ≥ 64
c1cc(-c2nc3ccc(-c4ccc5[nH]c(-c6ccc7c(c6)CCO7)nc5c4)cc3[nH]2)ccn1 [Example 7, 2-(2,3-dihydrobenzofuran-5-yl)-2′-(pyridin-4-yl)-1H,3′H-5,5′-bibenzo[d]imidazole] | ≤ 1 | ≥ 64 | ≥ 64 | ≥ 64 | ≥ 64 | ≤ 4 | ≥ 64 | ≤ 4
c1cc(-c2nc3cc(-c4ccc5[nH]c(-c6ccc7nccn7c6)nc5c4)ccc3[nH]2)ccn1 [Example 8, 2-(imidazo[1,2-a]pyridin-6-yl)-2′-(pyridin-4-yl)-1H,1′H-5,5′-bibenzo[d]imidazole] | ≤ 1 | ≥ 64 | ≥ 64 | ≥ 64 | ≥ 64 | ≥ 64 | ≥ 64 | ≥ 64
c1cc(-c2nc3cc(-c4ccc5[nH]c(-c6ccc7c(c6)OCO7)nc5c4)ccc3[nH]2)ccn1 [Example 9, 2-(benzo[d][1,3]dioxol-5-yl)-2′-(pyridin-4-yl)-1H,1′H-5,5′-bibenzo[d]imidazole] | ≤ 1 | ≥ 64 | ≥ 64 | ≥ 64 | ≥ 64 | ≥ 64 | ≥ 64 | ≥ 64
c1ccc2oc(-c3nc4cc(-c5ccc6[nH]c(-c7ccncc7)nc6c5)ccc4[nH]3)cc2c1 [Example 10, 2-(benzofuran-2-yl)-2′-(pyridin-4-yl)-1H,1′H-5,5′-bibenzo[d]imidazole] | ≤ 1 | ≥ 64 | ≥ 64 | ≥ 64 | ≥ 64 | ≤ 32 | ≤ 32 | ≥ 64
c1cc(-c2nc3cc(-c4ccc5[nH]c(-c6cc7ccncc7s6)nc5c4)ccc3[nH]2)ccn1 [Example 11, 2-(2′-(pyridin-4-yl)-1H,1′H-[5,5′-bibenzo[d]imidazol]-2-yl)thieno[2,3-c]pyridine] | ≤ 1 | ≥ 64 | ≥ 64 | ≥ 64 | ≥ 64 | ≥ 64 | ≥ 64 | ≥ 64
c1cncc(-c2nc3cc(-c4ccc5[nH]c(-c6ccc7nccn7c6)nc5c4)ccc3[nH]2)c1 [Example 12, 2-(imidazo[1,2-a]pyridin-6-yl)-2′-(pyridin-3-yl)-1H,1′H-5,5′-bibenzo[d]imidazole] | ≤ 1 | ≥ 64 | ≥ 64 | ≥ 64 | ≥ 64 | ≥ 64 | ≥ 64 | ≥ 64
c1cncc(-c2nc3cc(-c4ccc5[nH]c(-c6cc7cccnc7s6)nc5c4)ccc3[nH]2)c1 [Example 13, 2-(2′-(pyridin-3-yl)-1H,1′H-[5,5′-bibenzo[d]imidazol]-2-yl)thieno[2,3-b]pyridine] | ≤ 1 | ≥ 64 | ≥ 64 | ≥ 64 | ≥ 64 | ≥ 64 | ≥ 64 | ≥ 64
